Measured values reported in PubChem BioAssay AID248 (DTP/NCI, 2004).
“And” between values parts separate entries of the source, which are not always exact repeats. Equal entries are not always repeated. Toxic doses and inconclusive results are not listed.

Tested on: L1210 leukemia ip in BDF1 mice, survival T/C
Test: NCI In Vivo Anticancer Drug Screen. Data for tumor model L1210 Leukemia (intraperitoneal) in B6D2F1 (BDF1) mice
Conditions: endpoint: mean survival time, higher = longer survival
Method in brief: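 Transplanted-tumor mice were given test agent; controls received vehicle only. Survival readings from the two groups were divided (treated over control).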

[1] = dose: 100.0 mg/kg/injection, schedule: Q04DX002 (ip), vehicle: saline with Tween-80
[2] = dose: 200.0 mg/kg/injection, schedule: Q04DX002 (ip), vehicle: saline with Tween-80
[3] = dose: 400.0 mg/kg/injection, schedule: Q04DX002 (ip), vehicle: saline with Tween-80
[4] = dose: 100.0 mg/kg/injection, schedule: Q04DX002 (ip), vehicle: Klucel (hydroxypropylcellulose) (HPC)
[5] = dose: 200.0 mg/kg/injection, schedule: Q04DX002 (ip), vehicle: Klucel (hydroxypropylcellulose) (HPC)
[6] = dose: 100.0 mg/kg/injection, schedule: Q04DX003 (ip), vehicle: Klucel (hydroxypropylcellulose) (HPC)
[7] = dose: 200.0 mg/kg/injection, schedule: Q04DX003 (ip), vehicle: Klucel (hydroxypropylcellulose) (HPC)
[8] = dose: 400.0 mg/kg/injection, schedule: Q04DX003 (ip), vehicle: Klucel (hydroxypropylcellulose) (HPC)
[9] = dose: 100.0 mg/kg/injection, schedule: Q04DX003 (ip), vehicle: saline
[10] = dose: 50.0 mg/kg/injection, schedule: Q04DX002 (ip), vehicle: Klucel (hydroxypropylcellulose) (HPC)

## Nc1nc2ncc(CNc3ccc(CCC(=O)NC(CCC(=O)O)C(=O)O)cc3)nc2c(=O)[nH]1 (stereo not drawn)
dose: 50.0 mg/kg/injection, schedule: Q01DX001 (ip), vehicle: saline with Tween-80
  T/C: 108 % of control
dose: 100.0 mg/kg/injection, schedule: Q01DX001 (ip), vehicle: saline with Tween-80
  T/C: 100 % of control
dose: 200.0 mg/kg/injection, schedule: Q01DX001 (ip), vehicle: saline with Tween-80
  T/C: 101 % of control

## Nc1ncnc2c1CP(=O)(c1ccccc1)CC2 (stereo not drawn)
[1]
  T/C: 103 % of control
[2]
  T/C: 103 % of control
[3]
  T/C: 103 % of control

## Cc1ccc(S(=O)(=O)N2CC(=O)N(S(=O)(=O)c3ccc(C)cc3)CC2=O)cc1
dose: 100.0 mg/kg/injection, schedule: Q01DX001 (ip), vehicle: other
  T/C: 106 % of control
dose: 200.0 mg/kg/injection, schedule: Q01DX001 (ip), vehicle: other
  T/C: 103 % of control
dose: 400.0 mg/kg/injection, schedule: Q01DX001 (ip), vehicle: other
  T/C: 106 % of control

## O=C(COc1ccc(Cl)cc1C(=O)O)NCc1ccc(Cl)cc1
dose: 100.0 mg/kg/injection, schedule: Q01DX009 (ip), vehicle: gum acacia
  T/C: 92 % of control
dose: 200.0 mg/kg/injection, schedule: Q01DX009 (ip), vehicle: gum acacia
  T/C: 106 % of control
dose: 400.0 mg/kg/injection, schedule: Q01DX009 (ip), vehicle: gum acacia
  T/C: 92 % of control

## Cc1cc2c(cc1C)C(=O)C(=O)N2
dose: 50.0 mg/kg/injection, schedule: Q01DX001 (ip), vehicle: saline
  T/C: 98 % of control
dose: 100.0 mg/kg/injection, schedule: Q01DX001 (ip), vehicle: saline
  T/C: 107 % of control
dose: 200.0 mg/kg/injection, schedule: Q01DX001 (ip), vehicle: saline
  T/C: 104 % of control
dose: 400.0 mg/kg/injection, schedule: Q01DX001 (ip), vehicle: saline
  T/C: 98 % of control

## O=NN(CCCl)C(=O)Nc1ccc(CCCl)cc1
dose: 10.0 mg/kg/injection, schedule: Q01DX001 (ip), vehicle: carboxymethylcellulose (CMC)
  T/C: 161 % of control
dose: 20.0 mg/kg/injection, schedule: Q01DX001 (ip), vehicle: carboxymethylcellulose (CMC)
  T/C: 152 % of control
dose: 33.0 mg/kg/injection, schedule: Q01DX001 (ip), vehicle: carboxymethylcellulose (CMC)
  T/C: 246 % of control
dose: 33.0 mg/kg/injection, schedule: Q01DX009 (ip), vehicle: carboxymethylcellulose (CMC)
  T/C: 107 % of control
dose: 50.0 mg/kg/injection, schedule: Q01DX001 (ip), vehicle: carboxymethylcellulose (CMC)
  T/C: 216 % of control
dose: 50.0 mg/kg/injection, schedule: Q01DX009 (ip), vehicle: carboxymethylcellulose (CMC)
  T/C: 87 % of control

## CCN(CCC#N)C(=S)Nc1ccc(C)c(C)c1
[1]
  T/C: 89 % of control
[2]
  T/C: 108 % of control
[3]
  T/C: 86 % of control

## NC(=O)NC(=O)c1nc2ccccc2[nH]c1=O
[4]
  T/C: 95 % of control
[5]
  T/C: 95 % of control
dose: 400.0 mg/kg/injection, schedule: Q04DX002 (ip), vehicle: Klucel (hydroxypropylcellulose) (HPC)
  T/C: 100 % of control

## Cc1c[n+]2ccc3ccccc3c2c2ccccc12
dose: 1.0 mg/kg/injection, schedule: Q01DX015 (ip), vehicle: carboxymethylcellulose (CMC)
  T/C: 100 % of control
dose: 1.25 mg/kg/injection, schedule: Q01DX009 (ip), vehicle: saline
  T/C: 94 % of control
dose: 2.0 mg/kg/injection, schedule: Q01DX015 (ip), vehicle: carboxymethylcellulose (CMC)
  T/C: 105 % of control
dose: 2.5 mg/kg/injection, schedule: Q01DX009 (ip), vehicle: saline
  T/C: 95 % of control
dose: 2.5 mg/kg/injection, schedule: Q04DX003 (ip), vehicle: acetone
  T/C: 103 % of control
dose: 4.0 mg/kg/injection, schedule: Q01DX015 (ip), vehicle: carboxymethylcellulose (CMC)
  T/C: 117 % of control
dose: 5.0 mg/kg/injection, schedule: Q01DX001 (ip), vehicle: acetone
  T/C: 106 % of control
dose: 5.0 mg/kg/injection, schedule: Q01DX009 (ip), vehicle: saline
  T/C: 113 % of control
dose: 5.0 mg/kg/injection, schedule: Q04DX003 (ip), vehicle: acetone
  T/C: 101 % of control
dose: 7.0 mg/kg/injection, schedule: Q01DX009 (ip), vehicle: saline
  T/C: 113 % of control
dose: 8.0 mg/kg/injection, schedule: Q01DX015 (ip), vehicle: carboxymethylcellulose (CMC)
  T/C: 112 % of control
dose: 10.0 mg/kg/injection, schedule: Q01DX001 (ip), vehicle: acetone
  T/C: 117 % of control

## Nc1cccc(CCCCc2ccc(Cl)cc2Cl)c1
dose: 100.0 mg/kg/injection, schedule: Q01DX001 (ip), vehicle: Klucel (hydroxypropylcellulose) (HPC)
  T/C: 97 % of control
dose: 200.0 mg/kg/injection, schedule: Q01DX001 (ip), vehicle: Klucel (hydroxypropylcellulose) (HPC)
  T/C: 96 % of control
dose: 400.0 mg/kg/injection, schedule: Q01DX001 (ip), vehicle: Klucel (hydroxypropylcellulose) (HPC)
  T/C: 102 % of control

## CC(=O)OC1C=CN(C(C)=O)C(SC23CC4CC(CC(C4)C2)C3)C1OC(C)=O (stereo not drawn)
[6]
  T/C: 92 % of control
[7]
  T/C: 100 % of control
[8]
  T/C: 92 % of control

## CCCOC(=O)COc1ccc(Cl)cc1C
[6]
  T/C: 96 % of control
[7]
  T/C: 96 % of control
[8]
  T/C: 91 % of control

## O=C(OCc1ccccc1)c1ccc(OCc2ccccc2)cc1
[9]
  T/C: 94 % of control
dose: 200.0 mg/kg/injection, schedule: Q04DX003 (ip), vehicle: saline
  T/C: 100 % of control
dose: 400.0 mg/kg/injection, schedule: Q04DX003 (ip), vehicle: saline
  T/C: 96 % of control

## NNC(=O)CNc1ccc(Br)cc1
[4]
  T/C: 112 % of control
[5]
  T/C: 106 % of control

## O=C(Nc1cc(Cl)ccc1O)Nc1cc(C(F)(F)F)ccc1Cl
dose: 100.0 mg/kg/injection, schedule: Q01DX001 (ip), vehicle: carboxymethylcellulose (CMC)
  T/C: 101 % of control
dose: 100.0 mg/kg/injection, schedule: Q01DX009 (ip), vehicle: carboxymethylcellulose (CMC)
  T/C: 95 % of control and 103 % of control
dose: 100.0 mg/kg/injection, schedule: Q04DX002 (ip), vehicle: carboxymethylcellulose (CMC)
  T/C: 97 % of control and 104 % of control
dose: 100.0 mg/kg/injection, schedule: Q04DX003 (ip), vehicle: carboxymethylcellulose (CMC)
  T/C: 97 % of control
dose: 200.0 mg/kg/injection, schedule: Q01DX001 (ip), vehicle: carboxymethylcellulose (CMC)
  T/C: 97 % of control
dose: 200.0 mg/kg/injection, schedule: Q01DX009 (ip), vehicle: carboxymethylcellulose (CMC)
  T/C: 97 % of control and 103 % of control
dose: 200.0 mg/kg/injection, schedule: Q04DX002 (ip), vehicle: carboxymethylcellulose (CMC)
  T/C: 97 % of control and 104 % of control
dose: 200.0 mg/kg/injection, schedule: Q04DX003 (ip), vehicle: carboxymethylcellulose (CMC)
  T/C: 97 % of control
dose: 400.0 mg/kg/injection, schedule: Q01DX001 (ip), vehicle: carboxymethylcellulose (CMC)
  T/C: 98 % of control
dose: 400.0 mg/kg/injection, schedule: Q01DX009 (ip), vehicle: carboxymethylcellulose (CMC)
  T/C: 92 % of control and 97 % of control
dose: 400.0 mg/kg/injection, schedule: Q04DX002 (ip), vehicle: carboxymethylcellulose (CMC)
  T/C: 98 % of control and 90 % of control
dose: 400.0 mg/kg/injection, schedule: Q04DX003 (ip), vehicle: carboxymethylcellulose (CMC)
  T/C: 100 % of control

## CSc1nccc(=O)n1C
dose: 12.5 mg/kg/injection, schedule: Q01DX009 (ip), vehicle: saline
  T/C: 96 % of control
dose: 25.0 mg/kg/injection, schedule: Q01DX009 (ip), vehicle: saline
  T/C: 96 % of control
dose: 25.0 mg/kg/injection, schedule: Q04DX003 (ip), vehicle: saline
  T/C: 98 % of control
dose: 50.0 mg/kg/injection, schedule: Q01DX009 (ip), vehicle: saline
  T/C: 101 % of control
dose: 50.0 mg/kg/injection, schedule: Q04DX003 (ip), vehicle: saline
  T/C: 106 % of control
[9]
  T/C: 107 % of control

## CCCCN1CCN(CCCC)C1=O
[4]
  T/C: 90 % of control
[5]
  T/C: 90 % of control

## CCCCC(=O)N1C(=O)Cc2ccccc21
[10]
  T/C: 97 % of control
[4]
  T/C: 97 % of control
[5]
  T/C: 97 % of control

## COC1OC2COC(c3ccccc3)OC2C(O)C1OC(=S)SSC(=S)OC1C(OC)OC2COC(c3ccccc3)OC2C1O (stereo not drawn)
dose: 25.0 mg/kg/injection, schedule: Q04DX002 (ip), vehicle: Klucel (hydroxypropylcellulose) (HPC)
  T/C: 89 % of control
[10]
  T/C: 104 % of control
[4]
  T/C: 112 % of control

## O=C1CCCC/C1=C\Sc1ccccc1
dose: 100.0 mg/kg/injection, schedule: Q04DX002 (ip), vehicle: saline
  T/C: 95 % of control
dose: 200.0 mg/kg/injection, schedule: Q04DX002 (ip), vehicle: saline
  T/C: 98 % of control
dose: 400.0 mg/kg/injection, schedule: Q04DX002 (ip), vehicle: saline
  T/C: 88 % of control
